What was measured:
Assay in all cases: relative viability (nuclei count vs DMSO), 5 days (fraction); higher = more cells survive
EPLC-272H = tested on: EPLC-272H
In short: (§1)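 Relative viability was taken as the ratio of nuclei in treated wells to nuclei in vehicle wells. Lung cancer cell lines in 1536-well plates received compounds by pin tool one day after seeding, either one drug alone or a fixed anchor-drug dose plus five library-drug doses (not always all listed) in √10 steps. Nuclei were counted on 4× images after 5 days of treatment, and values are medians of duplicate plates.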

NCI-H647 = tested on: NCI-H647
In short: as §1

NCI-H2347 = tested on: NCI-H2347
In short: as §1

NCI-H441 = tested on: NCI-H441
In short: as §1

NCI-H3122 = tested on: NCI-H3122
In short: as §1

NCI-H1734 = tested on: NCI-H1734
In short: as §1

H3255 = tested on: H3255
In short: as §1

HCC-15 = tested on: HCC-15
In short: as §1

NCI-H2170 = tested on: NCI-H2170
In short: as §1

NCI-H322M = tested on: NCI-H322M
In short: as §1

NCI-H2405 = tested on: NCI-H2405
In short: as §1

PC-14 = tested on: PC-14
In short: as §1

LOU-NH91 = tested on: LOU-NH91
In short: as §1

NCI-H1793 = tested on: NCI-H1793
In short: as §1

201T = tested on: 201T
In short: as §1

SW 900 = tested on: SW 900
In short: as §1

Question: Which results are given for `O=c1cc(-c2cccc3c2Sc2ccccc2S3)oc(N2CCOCC2)c1` + NC(=O)Nc1cc(-c2cccc(F)c2)sc1C(=O)N[C@H]1CCCNC1 [AZD7762] (partner 0.2 µM)?
Answer: relative viability (EPLC-272H; first compound 0.08 µM): 0.19; relative viability (EPLC-272H; first compound 0.253 µM): 0.242; relative viability (EPLC-272H; first compound 0.8 µM): 0.22; relative viability (EPLC-272H; first compound 2.53 µM): 0.24; relative viability (EPLC-272H; first compound 8 µM): 0.248; relative viability (NCI-H647; first compound 0.08 µM): 0.545; relative viability (NCI-H647; first compound 0.253 µM): 0.422; relative viability (NCI-H647; first compound 0.8 µM): 0.456; relative viability (NCI-H647; first compound 2.53 µM): 0.197; relative viability (NCI-H647; first compound 8 µM): 0.49; relative viability (NCI-H2347; first compound 0.08 µM): 0.738; relative viability (NCI-H2347; first compound 0.253 µM): 0.798; relative viability (NCI-H2347; first compound 0.8 µM): 0.799; relative viability (NCI-H2347; first compound 2.53 µM): 0.749; relative viability (NCI-H2347; first compound 8 µM): 0.701; relative viability (NCI-H441; first compound 0.08 µM): 0.965; relative viability (NCI-H441; first compound 0.253 µM): 1.24; relative viability (NCI-H441; first compound 0.8 µM): 1.18; relative viability (NCI-H441; first compound 2.53 µM): 0.941; relative viability (NCI-H441; first compound 8 µM): 1.21; relative viability (NCI-H3122; first compound 0.08 µM): 1.02; relative viability (NCI-H3122; first compound 0.253 µM): 1.06; relative viability (NCI-H3122; first compound 0.8 µM): 1.03; relative viability (NCI-H3122; first compound 2.53 µM): 0.933; relative viability (NCI-H3122; first compound 8 µM): 1.04; relative viability (NCI-H1734; first compound 0.08 µM): 0.512; relative viability (NCI-H1734; first compound 0.253 µM): 0.541; relative viability (NCI-H1734; first compound 0.8 µM): 0.581; relative viability (NCI-H1734; first compound 8 µM): 0.63; relative viability (H3255; first compound 0.08 µM): 0.878; relative viability (H3255; first compound 0.253 µM): 0.996; relative viability (H3255; first compound 0.8 µM): 0.758; relative viability (H3255; first compound 2.53 µM): 0.882; relative viability (H3255; first compound 8 µM): 0.901; relative viability (HCC-15; first compound 0.08 µM): 1.22; relative viability (HCC-15; first compound 0.253 µM): 1.51; relative viability (HCC-15; first compound 0.8 µM): 1.18; relative viability (HCC-15; first compound 2.53 µM): 1.18; relative viability (HCC-15; first compound 8 µM): 1.28; relative viability (NCI-H2170; first compound 0.08 µM): 0.842; relative viability (NCI-H2170; first compound 0.253 µM): 0.868; relative viability (NCI-H2170; first compound 0.8 µM): 0.996; relative viability (NCI-H2170; first compound 2.53 µM): 0.792; relative viability (NCI-H2170; first compound 8 µM): 0.804; relative viability (NCI-H322M; first compound 0.08 µM): 0.665; relative viability (NCI-H322M; first compound 0.253 µM): 0.537; relative viability (NCI-H322M; first compound 0.8 µM): 0.51; relative viability (NCI-H322M; first compound 2.53 µM): 0.429; relative viability (NCI-H322M; first compound 8 µM): 0.534; relative viability (NCI-H2405; first compound 0.08 µM): 0.691; relative viability (NCI-H2405; first compound 0.253 µM): 0.808; relative viability (NCI-H2405; first compound 0.8 µM): 0.731; relative viability (NCI-H2405; first compound 2.53 µM): 0.64; relative viability (NCI-H2405; first compound 8 µM): 0.661; relative viability (PC-14; first compound 0.08 µM): 0.338; relative viability (PC-14; first compound 0.253 µM): 0.45; relative viability (PC-14; first compound 0.8 µM): 0.264; relative viability (PC-14; first compound 2.53 µM): 0.263; relative viability (PC-14; first compound 8 µM): 0.381; relative viability (LOU-NH91; first compound 0.08 µM): 0.764; relative viability (LOU-NH91; first compound 0.253 µM): 0.778; relative viability (LOU-NH91; first compound 0.8 µM): 0.697; relative viability (LOU-NH91; first compound 2.53 µM): 0.714; relative viability (LOU-NH91; first compound 8 µM): 0.786; relative viability (NCI-H1793; first compound 0.08 µM): 0.299; relative viability (NCI-H1793; first compound 0.253 µM): 0.48; relative viability (NCI-H1793; first compound 0.8 µM): 0.458; relative viability (NCI-H1793; first compound 2.53 µM): 0.182; relative viability (NCI-H1793; first compound 8 µM): 0.377; relative viability (201T; first compound 0.08 µM): 0.598; relative viability (201T; first compound 0.253 µM): 0.686; relative viability (201T; first compound 0.8 µM): 0.741; relative viability (201T; first compound 2.53 µM): 0.655; relative viability (201T; first compound 8 µM): 0.546; relative viability (SW 900; first compound 0.253 µM): 0.862; relative viability (SW 900; first compound 0.8 µM): 0.719; relative viability (SW 900; first compound 2.53 µM): 0.525; relative viability (SW 900; first compound 8 µM): 0.418

Question: What does the source list for `COc1nc(C)cnc1NS(=O)(=O)c1cccnc1-c1ccc(-c2nnco2)cc1` [Zibotentan] + NC(=O)Nc1cc(-c2cccc(F)c2)sc1C(=O)N[C@H]1CCCNC1 [AZD7762] (partner 0.2 µM)?
Answer: relative viability (EPLC-272H; first compound 0.08 µM): 0.217; relative viability (EPLC-272H; first compound 0.253 µM): 0.261; relative viability (EPLC-272H; first compound 0.8 µM): 0.168; relative viability (EPLC-272H; first compound 2.53 µM): 0.259; relative viability (NCI-H647; first compound 0.08 µM): 0.353; relative viability (NCI-H647; first compound 0.253 µM): 0.302; relative viability (NCI-H647; first compound 0.8 µM): 0.384; relative viability (NCI-H647; first compound 2.53 µM): 0.676; relative viability (NCI-H2347; first compound 0.08 µM): 0.733; relative viability (NCI-H2347; first compound 0.253 µM): 0.723; relative viability (NCI-H2347; first compound 0.8 µM): 0.742; relative viability (NCI-H2347; first compound 2.53 µM): 0.945; relative viability (NCI-H441; first compound 0.08 µM): 1.3; relative viability (NCI-H441; first compound 0.253 µM): 1.08; relative viability (NCI-H441; first compound 0.8 µM): 0.994; relative viability (NCI-H441; first compound 2.53 µM): 1.12; relative viability (NCI-H3122; first compound 0.08 µM): 1.01; relative viability (NCI-H3122; first compound 0.253 µM): 0.999; relative viability (NCI-H3122; first compound 0.8 µM): 0.915; relative viability (NCI-H3122; first compound 2.53 µM): 0.966; relative viability (NCI-H1734; first compound 0.08 µM): 0.629; relative viability (NCI-H1734; first compound 0.253 µM): 0.521; relative viability (NCI-H1734; first compound 0.8 µM): 0.499; relative viability (NCI-H1734; first compound 2.53 µM): 0.55; relative viability (H3255; first compound 0.08 µM): 0.901; relative viability (H3255; first compound 0.253 µM): 0.87; relative viability (H3255; first compound 0.8 µM): 0.825; relative viability (H3255; first compound 2.53 µM): 0.799; relative viability (HCC-15; first compound 0.08 µM): 1.3; relative viability (HCC-15; first compound 0.253 µM): 1.28; relative viability (HCC-15; first compound 0.8 µM): 1.18; relative viability (HCC-15; first compound 2.53 µM): 1.26; relative viability (NCI-H2170; first compound 0.08 µM): 0.979; relative viability (NCI-H2170; first compound 0.253 µM): 0.881; relative viability (NCI-H2170; first compound 0.8 µM): 0.675; relative viability (NCI-H2170; first compound 2.53 µM): 0.881; relative viability (NCI-H322M; first compound 0.08 µM): 0.605; relative viability (NCI-H322M; first compound 0.253 µM): 0.551; relative viability (NCI-H322M; first compound 0.8 µM): 0.364; relative viability (NCI-H322M; first compound 2.53 µM): 0.605; relative viability (NCI-H2405; first compound 0.08 µM): 0.766; relative viability (NCI-H2405; first compound 0.253 µM): 0.701; relative viability (NCI-H2405; first compound 0.8 µM): 0.654; relative viability (NCI-H2405; first compound 2.53 µM): 0.846; relative viability (PC-14; first compound 0.08 µM): 0.445; relative viability (PC-14; first compound 0.253 µM): 0.264; relative viability (PC-14; first compound 0.8 µM): 0.324; relative viability (PC-14; first compound 2.53 µM): 0.369; relative viability (LOU-NH91; first compound 0.08 µM): 0.838; relative viability (LOU-NH91; first compound 0.253 µM): 0.702; relative viability (LOU-NH91; first compound 0.8 µM): 0.773; relative viability (LOU-NH91; first compound 2.53 µM): 0.795; relative viability (NCI-H1793; first compound 0.08 µM): 0.658; relative viability (NCI-H1793; first compound 0.253 µM): 0.341; relative viability (NCI-H1793; first compound 0.8 µM): 0.37; relative viability (NCI-H1793; first compound 2.53 µM): 0.495; relative viability (201T; first compound 0.08 µM): 0.644; relative viability (201T; first compound 0.253 µM): 0.604; relative viability (201T; first compound 0.8 µM): 0.624; relative viability (201T; first compound 2.53 µM): 0.569; relative viability (SW 900; first compound 0.08 µM): 0.68; relative viability (SW 900; first compound 0.253 µM): 0.561; relative viability (SW 900; first compound 0.8 µM): 0.495; relative viability (SW 900; first compound 2.53 µM): 0.725
